Reference: PubChem BioAssay (NCI)
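Test compounds were applied to cells in 96-well plates for 48 hours at 5 doses. At the GI50, growth is halved. TGI marks complete inhibition of growth.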

Legend:
Experiment in all cases: NCI-60 cell line screen, 48 h
NCI-H23 lung = test system: NCI-H23 lung
SK-MEL-28 melanoma = test system: SK-MEL-28 melanoma
A498 renal = test system: A498 renal
BT-549 breast = test system: BT-549 breast
SK-MEL-5 melanoma = test system: SK-MEL-5 melanoma
CAKI-1 renal = test system: CAKI-1 renal
CCRF-CEM leukemia = test system: CCRF-CEM leukemia
HL-60(TB) leukemia = test system: HL-60(TB) leukemia
SNB-19 CNS = test system: SNB-19 CNS
K-562 leukemia = test system: K-562 leukemia
NCI-H460 lung = test system: NCI-H460 lung
SF-539 CNS = test system: SF-539 CNS
HT29 colon = test system: HT29 colon
LOX IMVI melanoma = test system: LOX IMVI melanoma
MDA-MB-435 = test system: MDA-MB-435
HOP-62 NSCLC = test system: HOP-62 NSCLC
EKVX NSCLC = test system: EKVX NSCLC
SW-620 colon = test system: SW-620 colon
HCT-116 colon = test system: HCT-116 colon
OVCAR-8 ovarian = test system: OVCAR-8 ovarian
OVCAR-5 ovarian = test system: OVCAR-5 ovarian
UACC-257 melanoma = test system: UACC-257 melanoma
RXF 393 renal = test system: RXF 393 renal
KM12 colon = test system: KM12 colon
RPMI-8226 leukemia = test system: RPMI-8226 leukemia
A549 NSCLC = test system: A549 NSCLC
COLO 205 colon = test system: COLO 205 colon
TK-10 renal = test system: TK-10 renal
SK-MEL-2 melanoma = test system: SK-MEL-2 melanoma
MALME-3M melanoma = test system: MALME-3M melanoma
NCI/ADR-RES ovarian = test system: NCI/ADR-RES ovarian
SR leukemia = test system: SR leukemia
SNB-75 CNS = test system: SNB-75 CNS
OVCAR-3 ovarian = test system: OVCAR-3 ovarian
PC-3 prostate = test system: PC-3 prostate
SF-268 CNS = test system: SF-268 CNS
NCI-H522 lung = test system: NCI-H522 lung
HCT-15 colon = test system: HCT-15 colon
SF-295 CNS = test system: SF-295 CNS
MCF7 breast = test system: MCF7 breast
MOLT-4 leukemia = test system: MOLT-4 leukemia
SK-OV-3 ovarian = test system: SK-OV-3 ovarian
HS 578T breast = test system: HS 578T breast
UO-31 renal = test system: UO-31 renal
ACHN renal = test system: ACHN renal
T-47D breast = test system: T-47D breast
OVCAR-4 ovarian = test system: OVCAR-4 ovarian
U251 CNS = test system: U251 CNS
MDA-MB-231 breast = test system: MDA-MB-231 breast
DU-145 prostate = test system: DU-145 prostate
NCI-H226 lung = test system: NCI-H226 lung
UACC-62 melanoma = test system: UACC-62 melanoma
HOP-92 NSCLC = test system: HOP-92 NSCLC
IGROV1 ovarian = test system: IGROV1 ovarian
SN12C renal = test system: SN12C renal

Structure (SMILES): Oc1ccccc1/C=N/c1nc(-c2ccccc2)cs1
- GI50 (NCI-H23 lung): 18.4 µM
- TGI (NCI-H23 lung): 41.8 µM
- GI50 (SK-MEL-28 melanoma): > 100 µM
- TGI (SK-MEL-28 melanoma): > 100 µM
- GI50 (A498 renal): 77 µM
- TGI (A498 renal): > 100 µM
- GI50 (BT-549 breast): 59.5 µM
- TGI (BT-549 breast): > 100 µM
- GI50 (SK-MEL-5 melanoma): 47.6 µM
- TGI (SK-MEL-5 melanoma): > 100 µM
- GI50 (CAKI-1 renal): 22.5 µM
- TGI (CAKI-1 renal): 62.6 µM
- GI50 (CCRF-CEM leukemia): 19.7 µM
- TGI (CCRF-CEM leukemia): 65 µM
- GI50 (HL-60(TB) leukemia): 36 µM
- TGI (HL-60(TB) leukemia): > 100 µM
- GI50 (SNB-19 CNS): > 100 µM
- TGI (SNB-19 CNS): > 100 µM
- GI50 (K-562 leukemia): 19.6 µM
- TGI (K-562 leukemia): 68 µM
- GI50 (NCI-H460 lung): > 100 µM
- TGI (NCI-H460 lung): > 100 µM
- GI50 (SF-539 CNS): 27.5 µM
- TGI (SF-539 CNS): 94.3 µM
- GI50 (HT29 colon): 58.2 µM
- TGI (HT29 colon): > 100 µM
- GI50 (LOX IMVI melanoma): 17.6 µM
- TGI (LOX IMVI melanoma): 46.9 µM
- GI50 (MDA-MB-435): 29.7 µM
- TGI (MDA-MB-435): > 100 µM
- GI50 (HOP-62 NSCLC): > 100 µM
- TGI (HOP-62 NSCLC): > 100 µM
- GI50 (EKVX NSCLC): > 100 µM
- TGI (EKVX NSCLC): > 100 µM
- GI50 (SW-620 colon): 14 µM
- TGI (SW-620 colon): 40 µM
- GI50 (HCT-116 colon): 12.4 µM
- TGI (HCT-116 colon): 34.4 µM
- GI50 (OVCAR-8 ovarian): 42.9 µM
- TGI (OVCAR-8 ovarian): > 100 µM
- GI50 (OVCAR-5 ovarian): 32.2 µM
- TGI (OVCAR-5 ovarian): > 100 µM
- GI50 (UACC-257 melanoma): 44.3 µM
- TGI (UACC-257 melanoma): > 100 µM
- GI50 (RXF 393 renal): 10.4 µM
- TGI (RXF 393 renal): 32.6 µM
- GI50 (KM12 colon): 51 µM
- TGI (KM12 colon): > 100 µM
- GI50 (RPMI-8226 leukemia): 27.5 µM
- TGI (RPMI-8226 leukemia): > 100 µM
- GI50 (A549 NSCLC): > 100 µM
- TGI (A549 NSCLC): > 100 µM
- GI50 (COLO 205 colon): 57.7 µM
- TGI (COLO 205 colon): > 100 µM
- GI50 (TK-10 renal): 33 µM
- TGI (TK-10 renal): > 100 µM
- GI50 (SK-MEL-2 melanoma): > 100 µM
- TGI (SK-MEL-2 melanoma): > 100 µM
- GI50 (MALME-3M melanoma): 47.2 µM
- TGI (MALME-3M melanoma): > 100 µM
- GI50 (NCI/ADR-RES ovarian): > 100 µM
- TGI (NCI/ADR-RES ovarian): > 100 µM
- GI50 (SR leukemia): 24.3 µM
- TGI (SR leukemia): 79.5 µM
- GI50 (SNB-75 CNS): > 100 µM
- TGI (SNB-75 CNS): > 100 µM
- GI50 (OVCAR-3 ovarian): 30 µM
- TGI (OVCAR-3 ovarian): > 100 µM
- GI50 (PC-3 prostate): 53.7 µM
- TGI (PC-3 prostate): > 100 µM
- GI50 (SF-268 CNS): 81.1 µM
- TGI (SF-268 CNS): > 100 µM
- GI50 (NCI-H522 lung): 25.4 µM
- TGI (NCI-H522 lung): 62.6 µM
- GI50 (HCT-15 colon): 29.4 µM
- TGI (HCT-15 colon): > 100 µM
- GI50 (SF-295 CNS): > 100 µM
- TGI (SF-295 CNS): > 100 µM
- GI50 (MCF7 breast): 14.1 µM
- TGI (MCF7 breast): 40.8 µM
- GI50 (MOLT-4 leukemia): 25.4 µM
- TGI (MOLT-4 leukemia): 74.7 µM
- GI50 (SK-OV-3 ovarian): > 100 µM
- TGI (SK-OV-3 ovarian): > 100 µM
- GI50 (HS 578T breast): 39 µM
- TGI (HS 578T breast): > 100 µM
- GI50 (UO-31 renal): 44.7 µM
- TGI (UO-31 renal): > 100 µM
- GI50 (ACHN renal): 32.2 µM
- TGI (ACHN renal): > 100 µM
- GI50 (T-47D breast): > 100 µM
- TGI (T-47D breast): > 100 µM
- GI50 (OVCAR-4 ovarian): 33.7 µM
- TGI (OVCAR-4 ovarian): > 100 µM
- GI50 (U251 CNS): 28.5 µM
- TGI (U251 CNS): > 100 µM
- GI50 (MDA-MB-231 breast): 20 µM
- TGI (MDA-MB-231 breast): > 100 µM
- GI50 (DU-145 prostate): 77.5 µM
- TGI (DU-145 prostate): > 100 µM
- GI50 (NCI-H226 lung): 35.1 µM
- TGI (NCI-H226 lung): > 100 µM
- GI50 (UACC-62 melanoma): 34.5 µM
- TGI (UACC-62 melanoma): > 100 µM
- GI50 (HOP-92 NSCLC): 8.22 µM
- TGI (HOP-92 NSCLC): > 100 µM
- GI50 (IGROV1 ovarian): > 100 µM
- TGI (IGROV1 ovarian): > 100 µM
- GI50 (SN12C renal): 30.9 µM
- TGI (SN12C renal): > 100 µM
